Measurements from ChEMBL document CHEMBL6109128, “Copper-KRAS-COX2 Axis: A Therapeutic Vulnerability in Pancreatic Cancer” (J Med Chem, 2025).
The source made the active and inactive calls. The calls are words filed in the database; no cut-off is given here.

Columns and labels:
PANC-1 [1] = experiment: Synergistic antiproliferative activity against human PANC-1 cells assessed as inhibition of colony formation at up to 1 uM incubated for 6 days in presence of valdecoxib; assay type: functional, cell-based; conditions: time 6.0 day
[2] = Cmax in CD-1 mouse at 30 mg/kg, po measured up to 24 hrs by LC-MS/MS analysis; assay type: ADME, organism-based; conditions: in vivo
HCT-116 [3] = experiment: Synergistic antiproliferative activity against human HCT-116 cells assessed as inhibition of colony formation at up to 1 uM incubated for 6 days in presence of JQ-1; assay type: functional, cell-based; conditions: time 6.0 day
HCT-116 [4] = experiment: Synergistic antiproliferative activity against human HCT-116 cells assessed as inhibition of colony formation at up to 1 uM incubated for 6 days in presence of MK-663; assay type: functional, cell-based; conditions: time 6.0 day
HCT-116 [5] = experiment: Induction of autophagy in human HCT-116 cells assessed as cell death at up to 1 uM incubated for 6 days in presence of MRT68921; assay type: functional, cell-based; conditions: time 6.0 day
MIA PaCa-2 [6] = experiment: Synergistic antiproliferative activity against human MIA PaCa-2 cells assessed as inhibition of colony formation at up to 1 uM in presence of FeCl3; assay type: functional, cell-based
[7] = Metabolic stability in human liver microsome assessed as half life measured up to 60 mins by LC-MS/MS analysis; assay type: ADME; conditions: liver microsomes
[8] = AUC in CD-1 mouse at 30 mg/kg, po measured up to 24 hrs by LC-MS/MS analysis; assay type: ADME, organism-based; conditions: in vivo
HCT-116 [9] = experiment: Induction of apoptosis in human HCT-116 cells assessed as increase in clonogenic survival up to 1 uM incubated for 6 days in presence of Z-VAD-FMK by crystal violet staining based analysis; assay type: functional, cell-based; conditions: time 6.0 day
HCT-116 [10] = experiment: Induction of ferroptosis in human HCT-116 cells assessed as cell death at up to 1 uM in presence of ferrostatin-1; assay type: functional, cell-based
HCT-116 [11] = experiment: Synergistic antiproliferative activity against human HCT-116 cells assessed as inhibition of colony formation at up to 1 uM incubated for 6 days in presence of celecoxib; assay type: functional, cell-based; conditions: time 6.0 day
BXPC-3 [12] = experiment: Cytotoxicity against human BXPC-3 cells harboring wild type KRAS; assay type: functional, cell-based
KPC2 = experiment: Synergistic antiproliferative activity against mouse KPC2 cells at 0.01 to 3 uM in presence of MRTX1133; assay type: functional, cell-based; conditions: dose 0.01-3 µM
MIA PaCa-2 [13] = experiment: Synergistic antiproliferative activity against human MIA PaCa-2 cells assessed as inhibition of colony formation at up to 1 uM incubated for 6 days in presence of rotec-oxib; assay type: functional, cell-based; conditions: time 6.0 day
MIA PaCa-2 [14] = experiment: Synergistic antiproliferative activity against human MIA PaCa-2 cells assessed as inhibition of colony formation at up to 1 uM incubated for 6 days in presence of MK-663; assay type: functional, cell-based; conditions: time 6.0 day
PANC-1 [15] = experiment: Antiproliferative activity against human PANC-1 cells assessed as cell death incubated for 6 hrs in presence of NS3694; assay type: functional, cell-based
HCT-116 [16] = experiment: Induction of ferroptosis in human HCT-116 cells at up to 1 uM in presence of FIN56; assay type: functional, cell-based
MIA PaCa-2 [17] = experiment: Cytotoxicity against human MIA PaCa-2 cells by MTT assay; assay type: functional, cell-based
[18] = Volume of distribution at steady state in CD-1 mouse at 15 mg/kg, iv measured up to 24 hrs by LC-MS/MS analysis; assay type: ADME, organism-based; conditions: in vivo, read-out: Vdss
HCT-116 [19] = experiment: Synergistic antiproliferative activity against human HCT-116 cells assessed as inhibition of colony formation at up to 1 uM incubated for 6 days in presence of lumi-racoxib; assay type: functional, cell-based; conditions: time 6.0 day
SU.86.86 = experiment: Cytotoxicity against human SU-86-86 cells by MTT assay; assay type: functional, cell-based
MIA PaCa-2 [20] = experiment: Antiproliferative activity against human MIA PaCa-2 cells harboring KRAS; assay type: functional, cell-based
MIA PaCa-2 [21] = experiment: Synergistic antiproliferative activity against human MIA PaCa-2 cells assessed as inhibition of colony formation at up to 0.5 uM in presence of TTM; assay type: functional, cell-based
BXPC-3 [22] = experiment: Induction of apoptosis in human BXPC-3 cells assessed as increase in clonogenic survival up to 0.5 uM incubated for 6 days in presence of necrostatin-1 by crystal violet staining based analysis; assay type: functional, cell-based; conditions: time 6.0 day
HCT-116 [23] = experiment: Synergistic antiproliferative activity against human HCT-116 cells assessed as inhibition of colony formation at up to 10 uM in presence of TTM; assay type: functional, cell-based
PANC-1 [24] = experiment: Cytotoxicity against human PANC-1 cells by MTT assay; assay type: functional, cell-based
MIA PaCa-2 [25] = experiment: Induction of necroptosis in human MIA PaCa-2 cells assessed as increase in p-RIP3 level at 10 uM incubated for 1 hr by Western blot analysis; assay type: functional, cell-based
Panc02 [26] = experiment: Synergistic antiproliferative activity against mouse Panc02 cells assessed as inhibition of colony formation at up to 1 uM incubated for 6 days in presence of celecoxib; assay type: functional, cell-based; conditions: time 6.0 day
BXPC-3 [27] = experiment: Synergistic antiproliferative activity against human BXPC-3 cells assessed as inhibition of colony formation at up to 1 uM incubated for 6 days in presence of celecoxib; assay type: functional, cell-based; conditions: time 6.0 day
BXPC-3 [28] = experiment: Synergistic antiproliferative activity against human BXPC-3 cells assessed as inhibition of colony formation at up to 1 uM incubated for 6 days in presence of valdecoxib; assay type: functional, cell-based; conditions: time 6.0 day
MIA PaCa-2 [29] = experiment: Synergistic antiproliferative activity against human MIA PaCa-2 cells assessed as inhibition of colony formation at up to 1 uM incubated for 6 days in presence of valdecoxib; assay type: functional, cell-based; conditions: time 6.0 day
[30] = AUC (0 to infinity) in CD-1 mouse at 30 mg/kg, po measured up to 24 hrs by LC-MS/MS analysis; assay type: ADME, organism-based; conditions: in vivo
[31] = Cytotoxicity against mouse KPC2 cells by MTT assay; assay type: functional, cell-based
Panc02 [32] = experiment: Synergistic antiproliferative activity against mouse Panc02 cells harboring wild type KRAS at 0.01 to 3 uM in presence of MRTX1133; assay type: functional, cell-based; conditions: dose 0.01-3 µM
BXPC-3 [33] = experiment: Cytotoxicity against human BXPC-3 cells by MTT assay; assay type: functional, cell-based
MIA PaCa-2 [34] = experiment: Synergistic antiproliferative activity against human MIA PaCa-2 cells assessed as inhibition of colony formation at up to 0.5 uM in presence of CuSO4; assay type: functional, cell-based
HCT-116 [35] = experiment: Synergistic antiproliferative activity against human HCT-116 cells assessed as inhibition of colony formation at up to 1 uM incubated for 6 days in presence of valdecoxib; assay type: functional, cell-based; conditions: time 6.0 day
MIA PaCa-2 [36] = experiment: Synergistic antiproliferative activity against human MIA PaCa-2 cells assessed as inhibition of colony formation at up to 1 uM incubated for 6 days in presence of celecoxib; assay type: functional, cell-based; conditions: time 6.0 day
HCT-116 [37] = experiment: Synergistic antiproliferative activity against human HCT-116 cells assessed as inhibition of colony formation at up to 1 uM incubated for 6 days in presence of AZD6738; assay type: functional, cell-based; conditions: time 6.0 day
Panc02 [38] = experiment: Cytotoxicity against mouse Panc02 cells harboring wild type KRAS; assay type: functional, cell-based
[39] = Metabolic stability in mouse liver microsome assessed as half life measured up to 60 mins by LC-MS/MS analysis; assay type: ADME; conditions: liver microsomes
HCT-116 [40] = experiment: Induction of autophagy in human HCT-116 cells assessed as cell death at up to 1 uM incubated for 6 days in presence of chloroquine; assay type: functional, cell-based; conditions: time 6.0 day
HCT-116 [41] = experiment: Induction of apoptosis in human HCT-116 cells assessed as upregulation of cleaved PARP level at 1 uM measured for 24 hrs in presence of CuSO4 by Western blot analysis; assay type: functional, cell-based

N[C@@H]1[C@H]2CN(c3cnc(C(=O)Nc4cc(F)cc5cccnc45)cn3)C[C@@H]12
Activity (PANC-1 [1]): Active | Cmax [2]: 364 ng/mL | Activity (HCT-116 [3]): Active | Activity (HCT-116 [4]): Active | Activity (HCT-116 [5]): Active | Activity (MIA PaCa-2 [6]): Active | half-life [7]: > 1 h | AUC at 24 h [8]: 3780 ng·h/mL | Activity (HCT-116 [9]): Active | Activity (HCT-116 [10]): inactive | Activity (HCT-116 [11]): Active | Activity (BXPC-3 [12]): inactive | Activity (KPC2): Active | Activity (MIA PaCa-2 [13]): Active | Activity (MIA PaCa-2 [14]): Active | Activity (PANC-1 [15]): Active | Activity (HCT-116 [16]): Active | IC50 (MIA PaCa-2 [17]): 600 nM | Vd [18]: 14.6 L/kg | Activity (HCT-116 [19]): Active | IC50 (SU.86.86): 1100 nM | Activity (MIA PaCa-2 [20]): Active | Activity (MIA PaCa-2 [21]): Active | Activity (BXPC-3 [22]): Active | Activity (HCT-116 [23]): Active | IC50 (PANC-1 [24]): 4400 nM | Activity (MIA PaCa-2 [25]): Active | Activity (Panc02 [26]): Active | Activity (BXPC-3 [27]): Active | Activity (BXPC-3 [28]): Active | Activity (MIA PaCa-2 [29]): Active | AUC(0-inf) [30]: 3810 ng·h/mL | IC50 [31]: 3400 nM | Activity (Panc02 [32]): inactive | IC50 (BXPC-3 [33]): > 10000 nM | Activity (MIA PaCa-2 [34]): Active | Activity (HCT-116 [35]): Active | Activity (MIA PaCa-2 [36]): Active | Activity (HCT-116 [37]): Active | Activity (Panc02 [38]): inactive | half-life [39]: > 1 h | Activity (HCT-116 [40]): Active | Activity (HCT-116 [41]): Active

C[C@@H]1OCC2(CCN(c3cnc(C(=O)Nc4cc(F)cc5cccnc45)cn3)CC2)[C@@H]1N
Activity (PANC-1 [1]): Active | Cmax [2]: 1020 ng/mL | Activity (HCT-116 [3]): Active | Activity (HCT-116 [4]): Active | Activity (HCT-116 [5]): Active | Activity (MIA PaCa-2 [6]): Active | half-life [7]: > 1 h | AUC at 24 h [8]: 6640 ng·h/mL | Activity (HCT-116 [9]): Active | Activity (HCT-116 [10]): inactive | Activity (HCT-116 [11]): Active | Activity (BXPC-3 [12]): inactive | Activity (KPC2): Active | Activity (MIA PaCa-2 [13]): Active | Activity (MIA PaCa-2 [14]): Active | Activity (PANC-1 [15]): Active | Activity (HCT-116 [16]): Active | IC50 (MIA PaCa-2 [17]): 1900 nM | Vd [18]: 7.1 L/kg | Activity (HCT-116 [19]): Active | IC50 (SU.86.86): 800 nM | Activity (MIA PaCa-2 [20]): Active | Activity (MIA PaCa-2 [21]): Active | Activity (BXPC-3 [22]): Active | Activity (HCT-116 [23]): Active | IC50 (PANC-1 [24]): 2900 nM | Activity (MIA PaCa-2 [25]): Active | Activity (Panc02 [26]): Active | Activity (BXPC-3 [27]): Active | Activity (BXPC-3 [28]): Active | Activity (MIA PaCa-2 [29]): Active | AUC(0-inf) [30]: 6800 ng·h/mL | IC50 [31]: 1900 nM | Activity (Panc02 [32]): inactive | IC50 (BXPC-3 [33]): 8500 nM | Activity (MIA PaCa-2 [34]): Active | Activity (HCT-116 [35]): Active | Activity (MIA PaCa-2 [36]): Active | Activity (HCT-116 [37]): Active | Activity (Panc02 [38]): inactive | half-life [39]: > 1 h | Activity (HCT-116 [40]): Active | Activity (HCT-116 [41]): Active
